In paper PMC6429214, “Design, Synthesis and Biological Evaluation of Isoxazole-Based CK1 Inhibitors Modified with Chiral Pyrrolidine Scaffolds” (Molecules, 2019):

Tests used:
Experiment in all cases: 33PanQinase panel
Assay type in all cases: biochemical
[1] = molecular target: T1, ROCK1 (Homo sapiens, UniProt Q13464); conditions: ROCK1, 1 µM; read-out: Residual Activity (%)
T1 construct: purchased ProQinase
Method in brief: (§1)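 Selectivity was profiled over 320 wild-type kinases at 1 µM inhibitor. Remaining activity relative to DMSO control was derived from 33P radiometric activity measurement.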

[2] = molecular target: T2, TNK1 (Homo sapiens, UniProt Q13470); conditions: TNK1, 1 µM; read-out: Residual Activity (%)
T2 construct: purchased ProQinase
Method in brief: as §1

[3] = molecular target: T3, PAK1 (Homo sapiens, UniProt Q13153); conditions: PAK1, 1 µM; read-out: Residual Activity (%)
T3 construct: purchased ProQinase
Method in brief: as §1

[4] = molecular target: T4, PRKG1 (Homo sapiens, UniProt Q13976); conditions: PRKG1, 1 µM; read-out: Residual Activity (%)
T4 construct: purchased ProQinase
Method in brief: as §1

[5] = molecular target: T5, SRMS (Homo sapiens, UniProt Q9H3Y6); conditions: read-out: Residual Activity (%)
T5 construct: purchased ProQinase
Method in brief: as §1

[6] = molecular target: T6, CDK3/CycC (Homo sapiens, UniProt Q00526); conditions: read-out: Residual Activity (%)
T6 construct: purchased ProQinase
Method in brief: as §1

[7] = molecular target: T7, MEK2 (Homo sapiens, UniProt P36507); conditions: MEK2, 1 µM; read-out: Residual Activity (%)
T7 construct: purchased ProQinase
Method in brief: as §1

[8] = molecular target: T8, CDK9/CycT1 (Homo sapiens, UniProt P50750); conditions: CDK9/CycT1, 1 µM; read-out: Residual Activity (%)
T8 construct: purchased ProQinase
Method in brief: as §1

[9] = molecular target: T9, ERBB4 (Homo sapiens, UniProt Q15303); conditions: ERBB4, 1 µM; read-out: Residual Activity (%)
T9 construct: purchased ProQinase
Method in brief: as §1

[10] = molecular target: T10, MERTK (Homo sapiens, UniProt Q12866); conditions: read-out: Residual Activity (%)
T10 construct: purchased ProQinase
Method in brief: as §1

[11] = molecular target: T11, PYK2 (Homo sapiens, UniProt Q14289); conditions: PYK2, 1 µM; read-out: Residual Activity (%)
T11 construct: purchased ProQinase
Method in brief: as §1

[12] = molecular target: T12, DNA-PK (Homo sapiens, UniProt P78527); conditions: read-out: Residual Activity (%)
T12 construct: purchased ProQinase
Method in brief: as §1

[13] = molecular target: T13, CDK2/CycA2 (Homo sapiens, UniProt P24941); conditions: CDK2/CycA2, 1 µM; read-out: Residual Activity (%)
T13 construct: purchased ProQinase
Method in brief: as §1

[14] = molecular target: T14, TRK-A (Homo sapiens, UniProt P04629); conditions: read-out: Residual Activity (%)
T14 construct: purchased ProQinase
Method in brief: as §1

[15] = molecular target: T15, AXL (Homo sapiens, UniProt P30530); conditions: read-out: Residual Activity (%)
T15 construct: purchased ProQinase
Method in brief: as §1

[16] = molecular target: T16, CDK3/CycE1 (Homo sapiens, UniProt Q00526); conditions: CDK3/CycE1, 1 µM; read-out: Residual Activity (%)
T16 construct: purchased ProQinase
Method in brief: as §1

[17] = molecular target: T17, MKNK1 (Homo sapiens, UniProt Q9BUB5); conditions: MKNK1, 1 µM; read-out: Residual Activity (%)
T17 construct: purchased ProQinase
Method in brief: as §1

[18] = molecular target: T18, ERK7 (Homo sapiens, UniProt Q8TD08); conditions: ERK7, 1 µM; read-out: Residual Activity (%)
T18 construct: purchased ProQinase
Method in brief: as §1

[19] = molecular target: T19, MKK4 (Homo sapiens, UniProt P45985); conditions: MKK4, 1 µM; read-out: Residual Activity (%)
T19 construct: purchased ProQinase
Method in brief: as §1

[20] = molecular target: T20, EPHA1 (Homo sapiens, UniProt P21709); conditions: EPHA1, 1 µM; read-out: Residual Activity (%)
T20 construct: purchased ProQinase
Method in brief: as §1

[21] = molecular target: T21, LIMK1 (Homo sapiens, UniProt P53667); conditions: LIMK1, 1 µM; read-out: Residual Activity (%)
T21 construct: purchased ProQinase
Method in brief: as §1

[22] = molecular target: T22, FAK aa2-1052 (Homo sapiens, UniProt Q05397); conditions: FAK aa2-1052, 1 µM; read-out: Residual Activity (%)
T22 construct: purchased ProQinase
Method in brief: as §1

[23] = molecular target: T23, SAK (Homo sapiens, UniProt O00444); conditions: read-out: Residual Activity (%)
T23 construct: purchased ProQinase
Method in brief: as §1

[24] = molecular target: T24, VEGF-R2 (Homo sapiens, UniProt P35968); conditions: VEGF-R2, 1 µM; read-out: Residual Activity (%)
T24 construct: purchased ProQinase
Method in brief: as §1

[25] = molecular target: T25, IRAK4 (untagged) (Homo sapiens, UniProt Q9NWZ3); conditions: read-out: Residual Activity (%)
T25 construct: purchased ProQinase
Method in brief: as §1

[26] = molecular target: T26, NEK6 (Homo sapiens, UniProt Q9HC98); conditions: NEK6, 1 µM; read-out: Residual Activity (%)
T26 construct: purchased ProQinase
Method in brief: as §1

[27] = molecular target: T27, p38-alpha (Homo sapiens, UniProt Q16539); conditions: read-out: Residual Activity (%)
T27 construct: purchased ProQinase
Method in brief: as §1

T6 sequence (Q00526 whole entry): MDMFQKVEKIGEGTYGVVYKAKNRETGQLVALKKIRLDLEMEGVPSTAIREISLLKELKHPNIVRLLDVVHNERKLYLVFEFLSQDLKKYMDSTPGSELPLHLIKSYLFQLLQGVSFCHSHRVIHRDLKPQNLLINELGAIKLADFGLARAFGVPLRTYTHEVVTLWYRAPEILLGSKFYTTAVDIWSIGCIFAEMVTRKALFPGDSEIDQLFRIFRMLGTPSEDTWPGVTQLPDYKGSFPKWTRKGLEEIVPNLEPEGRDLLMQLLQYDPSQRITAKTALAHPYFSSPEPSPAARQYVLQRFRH
T6 sequence (P24863 whole entry partner): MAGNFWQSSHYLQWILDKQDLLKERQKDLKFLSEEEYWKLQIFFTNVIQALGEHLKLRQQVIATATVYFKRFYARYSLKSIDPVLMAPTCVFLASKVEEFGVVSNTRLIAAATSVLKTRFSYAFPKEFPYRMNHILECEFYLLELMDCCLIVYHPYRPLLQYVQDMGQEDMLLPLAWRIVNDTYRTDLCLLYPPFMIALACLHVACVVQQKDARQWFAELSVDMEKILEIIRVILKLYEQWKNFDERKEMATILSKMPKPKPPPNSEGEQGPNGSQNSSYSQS
T16 sequence (Q00526 whole entry): as the sequence (Q00526 whole entry) above
T16 sequence (P24864 whole entry partner): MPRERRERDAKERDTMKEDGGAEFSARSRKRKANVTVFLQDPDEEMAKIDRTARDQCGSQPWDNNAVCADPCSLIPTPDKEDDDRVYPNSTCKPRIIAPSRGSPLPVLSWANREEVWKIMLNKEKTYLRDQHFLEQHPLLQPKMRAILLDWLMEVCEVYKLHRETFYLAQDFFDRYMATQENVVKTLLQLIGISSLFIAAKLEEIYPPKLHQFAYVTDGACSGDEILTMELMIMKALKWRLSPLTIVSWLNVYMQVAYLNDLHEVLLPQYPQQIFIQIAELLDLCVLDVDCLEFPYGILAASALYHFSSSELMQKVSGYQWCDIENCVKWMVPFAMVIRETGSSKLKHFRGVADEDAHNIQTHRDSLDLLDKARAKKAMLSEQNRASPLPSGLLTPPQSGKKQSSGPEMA
T3 sequence (Q13153 whole entry): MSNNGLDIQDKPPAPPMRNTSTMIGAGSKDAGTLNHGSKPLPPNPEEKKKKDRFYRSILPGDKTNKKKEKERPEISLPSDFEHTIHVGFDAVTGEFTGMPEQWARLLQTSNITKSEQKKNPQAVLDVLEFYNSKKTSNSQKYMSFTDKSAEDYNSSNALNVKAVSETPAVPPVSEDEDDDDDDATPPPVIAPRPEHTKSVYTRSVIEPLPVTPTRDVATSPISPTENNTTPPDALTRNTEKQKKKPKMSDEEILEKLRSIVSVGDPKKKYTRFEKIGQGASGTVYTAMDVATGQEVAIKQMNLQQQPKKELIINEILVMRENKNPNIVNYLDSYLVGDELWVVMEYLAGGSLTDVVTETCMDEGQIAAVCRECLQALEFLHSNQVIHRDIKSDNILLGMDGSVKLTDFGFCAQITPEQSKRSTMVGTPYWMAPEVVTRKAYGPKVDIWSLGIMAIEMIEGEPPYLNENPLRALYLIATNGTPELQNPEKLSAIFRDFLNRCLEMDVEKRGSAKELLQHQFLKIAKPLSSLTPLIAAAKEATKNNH
T11 sequence (Q14289 whole entry): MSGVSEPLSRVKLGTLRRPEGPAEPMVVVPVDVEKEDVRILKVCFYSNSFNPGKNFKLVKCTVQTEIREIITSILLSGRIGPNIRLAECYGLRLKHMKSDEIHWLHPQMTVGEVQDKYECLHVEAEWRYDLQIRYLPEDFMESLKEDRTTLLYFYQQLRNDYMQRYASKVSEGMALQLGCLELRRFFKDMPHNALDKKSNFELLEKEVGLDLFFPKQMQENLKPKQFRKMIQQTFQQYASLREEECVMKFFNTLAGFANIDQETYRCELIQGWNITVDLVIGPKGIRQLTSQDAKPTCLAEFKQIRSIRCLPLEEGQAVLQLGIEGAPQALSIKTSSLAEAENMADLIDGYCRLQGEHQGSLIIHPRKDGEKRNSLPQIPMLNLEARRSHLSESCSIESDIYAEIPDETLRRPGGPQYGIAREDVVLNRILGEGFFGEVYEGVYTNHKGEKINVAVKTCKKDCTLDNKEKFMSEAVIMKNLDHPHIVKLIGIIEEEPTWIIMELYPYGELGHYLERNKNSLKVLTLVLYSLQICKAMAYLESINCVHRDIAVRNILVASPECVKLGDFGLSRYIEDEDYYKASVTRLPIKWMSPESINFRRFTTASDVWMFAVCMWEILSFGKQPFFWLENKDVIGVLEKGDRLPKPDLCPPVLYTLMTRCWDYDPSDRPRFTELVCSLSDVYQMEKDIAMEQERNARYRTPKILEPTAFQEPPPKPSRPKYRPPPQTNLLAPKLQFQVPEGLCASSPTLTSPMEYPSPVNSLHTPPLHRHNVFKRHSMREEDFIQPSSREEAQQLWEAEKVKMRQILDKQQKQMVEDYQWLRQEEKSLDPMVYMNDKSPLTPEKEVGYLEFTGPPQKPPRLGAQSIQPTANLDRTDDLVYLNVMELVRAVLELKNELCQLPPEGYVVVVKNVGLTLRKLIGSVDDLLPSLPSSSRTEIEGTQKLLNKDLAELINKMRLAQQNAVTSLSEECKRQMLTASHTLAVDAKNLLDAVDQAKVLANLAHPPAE
T14 sequence (P04629 33-796): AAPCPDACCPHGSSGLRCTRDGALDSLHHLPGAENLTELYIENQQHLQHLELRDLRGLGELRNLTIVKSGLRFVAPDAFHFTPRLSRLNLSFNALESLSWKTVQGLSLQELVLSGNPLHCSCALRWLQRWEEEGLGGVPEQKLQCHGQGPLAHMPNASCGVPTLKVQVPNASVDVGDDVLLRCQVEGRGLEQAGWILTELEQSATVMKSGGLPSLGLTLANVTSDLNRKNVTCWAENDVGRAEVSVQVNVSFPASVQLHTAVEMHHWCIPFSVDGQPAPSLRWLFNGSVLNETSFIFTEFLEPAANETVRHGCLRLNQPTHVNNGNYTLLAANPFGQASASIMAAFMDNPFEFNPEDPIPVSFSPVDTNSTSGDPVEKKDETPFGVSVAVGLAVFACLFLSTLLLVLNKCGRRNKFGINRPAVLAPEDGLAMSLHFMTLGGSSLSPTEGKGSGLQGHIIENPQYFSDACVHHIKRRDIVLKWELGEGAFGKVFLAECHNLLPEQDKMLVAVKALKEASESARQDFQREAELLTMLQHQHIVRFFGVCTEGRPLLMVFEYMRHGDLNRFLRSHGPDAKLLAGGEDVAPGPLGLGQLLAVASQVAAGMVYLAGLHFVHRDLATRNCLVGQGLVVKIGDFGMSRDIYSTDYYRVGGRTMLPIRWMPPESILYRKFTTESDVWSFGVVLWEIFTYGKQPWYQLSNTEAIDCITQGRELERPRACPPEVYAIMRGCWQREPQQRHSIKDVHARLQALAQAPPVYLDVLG
T4 sequence (Q13976 whole entry): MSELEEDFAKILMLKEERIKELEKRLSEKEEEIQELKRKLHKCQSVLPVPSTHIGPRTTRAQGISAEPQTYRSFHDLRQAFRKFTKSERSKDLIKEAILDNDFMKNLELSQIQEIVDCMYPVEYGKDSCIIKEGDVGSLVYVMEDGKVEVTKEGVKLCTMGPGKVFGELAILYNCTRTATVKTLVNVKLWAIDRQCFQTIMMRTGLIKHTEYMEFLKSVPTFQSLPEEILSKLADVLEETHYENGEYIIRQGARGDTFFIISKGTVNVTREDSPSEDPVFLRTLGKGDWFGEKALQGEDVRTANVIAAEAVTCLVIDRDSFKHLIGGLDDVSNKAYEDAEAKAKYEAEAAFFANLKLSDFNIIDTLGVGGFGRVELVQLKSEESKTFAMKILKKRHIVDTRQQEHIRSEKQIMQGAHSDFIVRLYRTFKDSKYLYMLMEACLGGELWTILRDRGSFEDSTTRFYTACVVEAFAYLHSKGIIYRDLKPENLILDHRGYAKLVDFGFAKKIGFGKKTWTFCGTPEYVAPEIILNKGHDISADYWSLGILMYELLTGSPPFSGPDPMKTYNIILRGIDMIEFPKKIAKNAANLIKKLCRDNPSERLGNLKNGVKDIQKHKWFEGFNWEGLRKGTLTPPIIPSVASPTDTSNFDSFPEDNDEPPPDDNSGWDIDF
T18 sequence (Q8TD08 whole entry): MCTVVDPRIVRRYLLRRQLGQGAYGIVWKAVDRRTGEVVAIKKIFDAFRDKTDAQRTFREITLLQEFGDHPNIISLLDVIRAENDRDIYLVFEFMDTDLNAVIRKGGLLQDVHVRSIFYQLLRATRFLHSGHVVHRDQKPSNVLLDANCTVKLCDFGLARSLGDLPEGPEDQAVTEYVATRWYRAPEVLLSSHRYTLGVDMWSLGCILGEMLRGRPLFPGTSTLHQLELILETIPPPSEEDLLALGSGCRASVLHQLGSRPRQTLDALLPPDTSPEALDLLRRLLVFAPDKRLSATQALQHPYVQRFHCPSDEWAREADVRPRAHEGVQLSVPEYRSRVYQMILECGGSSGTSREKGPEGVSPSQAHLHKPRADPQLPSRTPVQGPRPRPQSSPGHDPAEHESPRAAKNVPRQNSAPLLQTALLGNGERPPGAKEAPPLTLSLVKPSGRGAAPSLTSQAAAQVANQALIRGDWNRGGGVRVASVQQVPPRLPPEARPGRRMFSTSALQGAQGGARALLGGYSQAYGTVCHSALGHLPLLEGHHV

Q: What does the source list for `COc1ccc(-c2cc(C(=O)Nc3cc(-c4c(-c5ccc(F)cc5)noc4C(C)C)ccn3)n(CC3NCC(O)C3O)c2)cc1` (stereo not drawn) [29d]?
A: remaining activity at 1 µM [1]: 92%; remaining activity at 1 µM [2]: 104%; remaining activity at 1 µM [3]: 88%; remaining activity at 1 µM [4]: 89%; remaining activity at 1 µM [5]: 127%; remaining activity at 1 µM [6]: 100%; remaining activity at 1 µM [7]: 108%; remaining activity at 1 µM [8]: 103%; remaining activity at 1 µM [9]: 103%; remaining activity at 1 µM [10]: 76%; remaining activity at 1 µM [11]: 116%; remaining activity at 1 µM [12]: 95%; remaining activity at 1 µM [13]: 102%; remaining activity at 1 µM [14]: 116%; remaining activity at 1 µM [15]: 110%; remaining activity at 1 µM [16]: 103%; remaining activity at 1 µM [17]: 82%; remaining activity at 1 µM [18]: 102%; remaining activity at 1 µM [19]: 109%; remaining activity at 1 µM [20]: 120%; remaining activity at 1 µM [21]: 105%; remaining activity at 1 µM [22]: 120%; remaining activity at 1 µM [23]: 92%; remaining activity at 1 µM [24]: 110%; remaining activity at 1 µM [25]: 89%; remaining activity at 1 µM [26]: 94%; remaining activity at 1 µM [27]: 17%
